# EP2322149A1, “Methods and compositions for the treatment of ischemia” (Universidad del Pais Vasco, priority 2009, dated 2011)
# “And” between values parts separate entries of the source, which are not always exact repeats. Identical values can stand only once. “Also recorded” adds a separate entry of the source. Counter-ions that a name gives are not always drawn. Like-named read-outs stand apart in the source and are kept apart here.
# What was measured:
# optic nerve [1] = experiment: Compound action potential of isolated optic nerves perfused with ATP; parameters: species or system C57BL6 mice; details: ATP 10 mM, 3h (180 min), 37°C, compared to matched controls
# [2] = system: optic nerve oligodendrocytes; experiment: Whole-cell recording of ischaemic inward current in cultured oligodendrocytes (chemical ischaemia); format: cell-based, Sprague-Dawley rats
# Experimental: After 2-4 days in vitro, cultures were composed of at least 98% 04/Ga1C^+ cells. No microglial cells were detected in these cultures. […] Cell death was determined 24h later using calcein-AM (Invitrogen) as previously described (Matute et al., 1997 Proc Natl Acad Sci U S A 94:8830-8835.). Antagonists were present during in vitro ischaemia and during the next 24h incubation period. […] Calcein was used to quantify the number of cells within the reading field. Fluorescence was measured as above and values were plotted as the percentage of DCFDA/calcein red-orange fluorescence versus control. […] Molecular Probes). […] The changes in the membrane potential were calculated as the red (emission at 590)/green (emission at 520) ratio in each condition and results were normalized to control. Whole cell recordings were performed at room temperature and at a holding membrane potential of -70 mV. Extracellular bath solution with a pH of 7.3 contained (in mM): […] Patch clamp pipettes (3-5 MΩ) were filled with internal solution at a pH of 7.3 containing (in mM): CsCI 140, CaC12 2, MgC12 2, HEPES 10, EGTA 11, Na-ATP 2. For electrophysiology monitoring, ischaemia was induced chemically by using the glycolytic blocker iodoacetate (1 mM) and the oxidative phosphorylation inhibitor antimycin (2.5 μM), and omitting glucose because recordings were performed in an open chamber where O2 can diffuse to the cells (Káradóttir et al., 2005). Recordings of ATP currents were performed in divalent cation-free extracellular solutions, obtained by omitting Ca^2+ and Mg^2+, to potentiate P2X-mediated responses (Matute et al., 1997 Proc Natl Acad Sci U S A 94:8830-8835.). […] Molecular Probes, Inc., Eugene, OR) in culture medium for 30 min at 37 °C. Experiments were carried out in a coverslip chamber continuously perfused with a buffer containing 20 mM HEPES, 2 mM CaC12, 10 mM glucose in HBSS at 1 ml/min. The perfusion chamber was mounted on the stage of a Zeiss inverted epifluorescence microscope (Axiovert 35), equipped with a 150 W xenon lamp Polychrome IV (TILL Photonics GMBH) and a Plan Neofluar 40x oil immersion objective (Zeiss, Germany). Cells were visualized with a high resolution digital B/W CCD camera (ORCA; Hamamatsu Photonics Iberica, Barcelona, Spain) and image acquisition and data analysis were carried out using the AquaCosmos software program (Hamamatsu Photonics Iberica). Images were acquired every 30 ms at 37°C and ischaemia was induced as above. […] At the end of the assay, in situ calibration was carried out with the successive addition of […] and 2M Tris/50 mM EGTA, pH 8.5. Data were analyzed with Excel and Prism software.
# [3] = system: optic nerve oligodendrocytes; experiment: Reactive oxygen species (DCFDA) after OGD in oligodendrocyte cultures; format: cell-based, Sprague-Dawley rats; details: 1 h OGD; BBG 50 nM, PPADS 100 µM
# Experimental: (§1) Primary cultures of oligodendrocytes derived from optic nerves of 12 day-old Sprague-Dawley rats were obtained as previously described (Matute et al., 1997 Proc Natl Acad Sci U S A 94:8830-8835.).Cells were maintained at 37°C and 5% CO2 in a chemically defined medium (Matute et al., 1997 Proc Natl Acad Sci U S A 94:8830-8835.). After 2-4 days in vitro, cultures were composed of at least 98% 04/Ga1C^+ cells. No microglial cells were detected in these cultures. […] Cell death was determined 24h later using calcein-AM (Invitrogen) as previously described (Matute et al., 1997 Proc Natl Acad Sci U S A 94:8830-8835.). Antagonists were present during in vitro ischaemia and during the next 24h incubation period. […] Calcein was used to quantify the number of cells within the reading field. Fluorescence was measured as above and values were plotted as the percentage of DCFDA/calcein red-orange fluorescence versus control. The changes in mitochondrial membrane potential were monitored with 5,5',6,6'-tetrachloro-1,1',3,3'-tetraethylbenzimidazolcarbocyanine iodide (JC-1; Molecular Probes). […] The changes in the membrane potential were calculated as the red (emission at 590)/green (emission at 520) ratio in each condition and results were normalized to control.
# [4] = system: optic nerve oligodendrocytes; experiment: Mitochondrial membrane potential (JC-1) after OGD in oligodendrocyte cultures; format: cell-based, Sprague-Dawley rats; details: 1 h OGD; BBG 50 nM, PPADS 100 µM
# Experimental: as §1
# [5] = system: optic nerve oligodendrocytes; experiment: Oxygen and glucose deprivation (OGD) cell death in oligodendrocyte cultures (calcein-AM); format: cell-based, Sprague-Dawley rats; details: 1h OGD, calcein 24h later; PPADS 100 µM, BBG 50 nM, CNQX 30 µM, APV 100 µM, apyrase 20 U/ml, ARL67156 100 µM, CBX 20 µM, FFA 100 µM, MFQ 1 nM
# Experimental: Primary cultures of oligodendrocytes derived from optic nerves of 12 day-old Sprague-Dawley rats were obtained as previously described (Matute et al., 1997 Proc Natl Acad Sci U S A 94:8830-8835.).Cells were maintained at 37°C and 5% CO2 in a chemically defined medium (Matute et al., 1997 Proc Natl Acad Sci U S A 94:8830-8835.). After 2-4 days in vitro, cultures were composed of at least 98% 04/Ga1C^+ cells. No microglial cells were detected in these cultures. […] Cell death was determined 24h later using calcein-AM (Invitrogen) as previously described (Matute et al., 1997 Proc Natl Acad Sci U S A 94:8830-8835.). Antagonists were present during in vitro ischaemia and during the next 24h incubation period. […] To assay the levels of reactive oxygen species (ROS), cells were loaded with 40 µM 2',7'- dichlorodihyfluoresceindiacetate (DCFDA; Invitrogen) and 1 µM calcein red-orange (Molecular Probes) immediately after OGD. Calcein was used to quantify the number of cells within the reading field. Fluorescence was measured as above and values were plotted as the percentage of DCFDA/calcein red-orange fluorescence versus control. The changes in mitochondrial membrane potential were monitored with 5,5',6,6'-tetrachloro-1,1',3,3'-tetraethylbenzimidazolcarbocyanine iodide (JC-1; Molecular Probes). Immediately after OGD, cells were loaded with JC-1 (3 µM) at 37°C for 30 min. The changes in the membrane potential were calculated as the red (emission at 590)/green (emission at 520) ratio in each condition and results were normalized to control.
# [6] = system: AMPA and kainate receptors; experiment: Glutamate receptor agonist (AMPA, kainate) induced oligodendrocyte death (calcein fluorescence); format: cell-based, Sprague-Dawley rats; details: AMPA (100 µM) + cyclothiazide (100 µM), or kainate (3 mM) + GYKI 53655 (50 µM); PPADS 100 µM, BBG 50 nM
# Experimental: as §1
# optic nerves = experiment: Optic nerve ischaemia (OGD), tissue damage by LDH release; parameters: species or system rats
# Experimental: After 1h OGD at 37°C, the medium was replaced with fresh solution containing glucose and equilibrated with 95% O2, 5% CO2 and the nerves were incubated for another 2h at 37°C to simulate reperfusion.
# optic nerve [7] = system: optic nerve
# P2X3 = biological target: T1, P2X3 (Homo sapiens, UniProt P56373); details: read-out: IC50 P2X3; cited from earlier work
# T1 sequence (P56373 1-397): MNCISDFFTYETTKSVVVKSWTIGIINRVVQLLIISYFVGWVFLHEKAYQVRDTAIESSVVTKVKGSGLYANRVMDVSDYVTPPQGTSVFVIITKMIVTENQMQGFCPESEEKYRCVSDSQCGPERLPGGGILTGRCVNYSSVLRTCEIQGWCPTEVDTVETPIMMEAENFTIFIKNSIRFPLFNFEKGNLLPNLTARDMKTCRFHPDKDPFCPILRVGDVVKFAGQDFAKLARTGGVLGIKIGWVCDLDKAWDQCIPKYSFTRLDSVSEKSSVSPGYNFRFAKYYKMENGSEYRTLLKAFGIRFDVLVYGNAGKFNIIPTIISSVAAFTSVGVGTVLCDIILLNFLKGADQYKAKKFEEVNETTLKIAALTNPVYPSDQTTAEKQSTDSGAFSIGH
# Pannexin hemichannels = details: cited from earlier work
# P2X4 = biological target: T2, P2X4 (Homo sapiens, UniProt Q99571); details: read-out: IC50 P2X4; cited from earlier work
# T2 sequence (Q99571 1-388): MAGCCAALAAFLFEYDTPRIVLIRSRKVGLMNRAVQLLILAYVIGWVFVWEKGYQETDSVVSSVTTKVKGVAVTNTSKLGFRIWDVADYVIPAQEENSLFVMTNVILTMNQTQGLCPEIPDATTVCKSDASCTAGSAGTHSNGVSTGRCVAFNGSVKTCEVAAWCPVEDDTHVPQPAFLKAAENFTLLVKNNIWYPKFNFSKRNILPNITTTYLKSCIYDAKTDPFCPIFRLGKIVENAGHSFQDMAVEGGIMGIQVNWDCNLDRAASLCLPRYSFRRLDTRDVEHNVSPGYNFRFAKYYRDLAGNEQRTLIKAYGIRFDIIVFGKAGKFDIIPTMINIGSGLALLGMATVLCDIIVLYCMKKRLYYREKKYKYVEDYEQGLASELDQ
# [8] = system: optic nerve oligodendrocytes; experiment: Ca2+ imaging (fura-2) of oligodendrocytes during chemical ischaemia; format: cell-based, Sprague-Dawley rats
# Experimental: After 2-4 days in vitro, cultures were composed of at least 98% 04/Ga1C^+ cells. No microglial cells were detected in these cultures. […] Cell death was determined 24h later using calcein-AM (Invitrogen) as previously described (Matute et al., 1997 Proc Natl Acad Sci U S A 94:8830-8835.). Antagonists were present during in vitro ischaemia and during the next 24h incubation period. […] Calcein was used to quantify the number of cells within the reading field. Fluorescence was measured as above and values were plotted as the percentage of DCFDA/calcein red-orange fluorescence versus control. […] Molecular Probes). […] The changes in the membrane potential were calculated as the red (emission at 590)/green (emission at 520) ratio in each condition and results were normalized to control. Whole cell recordings were performed at room temperature and at a holding membrane potential of -70 mV. Extracellular bath solution with a pH of 7.3 contained (in mM): […] Patch clamp pipettes (3-5 MΩ) were filled with internal solution at a pH of 7.3 containing (in mM): CsCI 140, CaC12 2, MgC12 2, HEPES 10, EGTA 11, Na-ATP 2. […] Data were analyzed with Excel and Prism software.
# P2X7 = biological target: T3, P2X7 (Homo sapiens, UniProt Q99572); details: cited from earlier work
# T3 sequence (Q99572 1-595): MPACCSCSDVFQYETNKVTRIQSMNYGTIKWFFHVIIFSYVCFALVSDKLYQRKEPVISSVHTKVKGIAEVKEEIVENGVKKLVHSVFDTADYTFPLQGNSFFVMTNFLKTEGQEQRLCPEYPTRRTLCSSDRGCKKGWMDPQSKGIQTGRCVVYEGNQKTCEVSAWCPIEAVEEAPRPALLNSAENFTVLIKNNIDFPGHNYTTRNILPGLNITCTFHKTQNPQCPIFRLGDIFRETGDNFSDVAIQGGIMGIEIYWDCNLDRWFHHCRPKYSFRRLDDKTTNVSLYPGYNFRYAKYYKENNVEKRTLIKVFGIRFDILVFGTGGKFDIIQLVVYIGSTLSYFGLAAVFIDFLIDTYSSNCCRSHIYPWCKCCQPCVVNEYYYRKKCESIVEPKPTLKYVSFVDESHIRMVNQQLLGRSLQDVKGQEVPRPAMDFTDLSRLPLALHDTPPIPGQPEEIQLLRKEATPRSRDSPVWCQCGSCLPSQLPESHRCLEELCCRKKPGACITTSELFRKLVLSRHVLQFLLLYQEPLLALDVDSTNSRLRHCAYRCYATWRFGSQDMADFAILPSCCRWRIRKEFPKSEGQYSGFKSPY
compound,measurement,setting,value
Nc1ncnc2c1ncn2[C@@H]1O[C@H](COP(=O)(O)OP(=O)(O)OP(=O)(O)O)[C@@H](O)[C@H]1O [ATP],reduction in CAP area,optic nerve [1],50% and 50.1 ± 10.5%
"CCOc1ccc(Nc2ccc(C(=C3C=CC(=[N+](CC)Cc4cccc(S(=O)(=O)[O-])c4)C=C3C)c3ccc(N(CC)Cc4cccc(S(=O)(=O)O)c4)cc3C)cc2)cc1 [BBG, Coomassie brilliant blue G]",OGD-induced currents,"[2]; BBG 50 nM, CNQX (30 µM) plus APV (100 µM) applied before the onset of ischemia",inhibited
same,OGD currents after drug application versus OGD currents before drug application,"[2]; after washing the antagonists out, average over BBG and PPADS, n= 15",134 ± 32%
same,ischaemic inward currents,"[2]; chemical ischaemia (iodoacetate, antimycin, no glucose), -70 mV, PPADS 100 µM, oATP 1 mM, BBG 50 nM",significantly reduced; also recorded: partial block
same,generation of radical oxygen species (ROS),[3],prevented
same,mitochondrial depolarization,[4],prevented
same,OGD-induced oligodendrocyte cell death,[5],significantly reduced
same,glutamate receptor-induced oligodendrocyte death,[6],did not significantly inhibit
same,ischaemia-induced damage to optic nerves (LDH release),"optic nerves; P28 rat optic nerves, 1h OGD + 2h reperfusion, PPADS 1 mM, BBG 50 nM, oATP 1 mM, apyrase 20 U/ml, MFQ 1 µM, CBX 100 µM, FFA 1 mM",prevented; also recorded: reduced
same,OGD-induced damage at all developmental stages,"optic nerves; premyelinating (P7), myelinating (P14) and mature (P28) optic nerves",decreased; also recorded: protected
same,recovery of axon function (CAP area) after the ischaemic insult,"optic nerve [7]; 60 min after 1 h OGD, BBG 50 nM, o-ATP 1 mM",significantly improved
same,IC50,P2X3,> 10 µM
CC1(C)[C@@H](OC(=O)CCC(=O)O)CC[C@]2(C)[C@H]3C(=O)C=C4[C@@H]5C[C@@](C)(C(=O)O)CC[C@]5(C)CC[C@@]4(C)[C@]3(C)CC[C@@H]12 [Carbenoxolone disodium],IC50,Pannexin hemichannels,~5 µM
O=C(Nc1cccc(C(=O)Nc2ccc(S(=O)(=O)O)c3cc(S(=O)(=O)O)cc(S(=O)(=O)O)c23)c1)Nc1cccc(C(=O)Nc2ccc(S(=O)(=O)O)c3cc(S(=O)(=O)O)cc(S(=O)(=O)O)c23)c1 [NF023],IC50,P2X3,< 29 µM
same,IC50,P2X4,> 100 µM
"Nc1ncnc2c1ncn2[C@@H](C=O)O[C@@H](C=O)COP(=O)(O)OP(=O)(O)OP(=O)(O)O [o-ATP, the sodium salt of adenosine 5-triphosphate, oxidized with periodate]",ischaemic inward currents,[2],significantly reduced
same,increase in [Ca2+]i caused by ischaemia,[8],significantly blocked; also recorded: significantly reduced
same,OGD-induced damage at all developmental stages,optic nerves,decreased; also recorded: protected
same,ischaemia-induced damage to optic nerves (LDH release),optic nerves,prevented; also recorded: reduced
same,recovery of axon function (CAP area) after the ischaemic insult,optic nerve [7],significantly improved
same,IC50,P2X7,5 µM
